Measured values as given in BindingDB's records for doi:10.1021/jm0256169 (Eli Lilly, 2003).
pEC50, pIC50: −log10 of the molar value.

How the values were obtained:
[1] = target: cAMP-dependent protein kinase catalytic subunit alpha (Bos taurus, UniProt P00517); test: Kinase Inhibition Assay; conditions: 25 °C
Description: (§1) In vitro kinase assay using purified enzyme, was incubated at room temperature with substrate, and test compounds in the presence of ATP/[gamma-33P]ATP. 33P incorporation was measured with a Top Count (Packard). IC50 is the inhibitor concentration which inhibits 50% of kinase activity that catalyzes the transfer of the terminal phosphate from 33P labeled ATP to the substrate.

[2] = target: Calcium/calmodulin-dependent protein kinase type II subunit alpha (Rattus norvegicus, UniProt P11275); test: Kinase Inhibition Assay; conditions: 25 °C
Sequence of Calcium/calmodulin-dependent protein kinase type II subunit alpha (P11275 whole entry): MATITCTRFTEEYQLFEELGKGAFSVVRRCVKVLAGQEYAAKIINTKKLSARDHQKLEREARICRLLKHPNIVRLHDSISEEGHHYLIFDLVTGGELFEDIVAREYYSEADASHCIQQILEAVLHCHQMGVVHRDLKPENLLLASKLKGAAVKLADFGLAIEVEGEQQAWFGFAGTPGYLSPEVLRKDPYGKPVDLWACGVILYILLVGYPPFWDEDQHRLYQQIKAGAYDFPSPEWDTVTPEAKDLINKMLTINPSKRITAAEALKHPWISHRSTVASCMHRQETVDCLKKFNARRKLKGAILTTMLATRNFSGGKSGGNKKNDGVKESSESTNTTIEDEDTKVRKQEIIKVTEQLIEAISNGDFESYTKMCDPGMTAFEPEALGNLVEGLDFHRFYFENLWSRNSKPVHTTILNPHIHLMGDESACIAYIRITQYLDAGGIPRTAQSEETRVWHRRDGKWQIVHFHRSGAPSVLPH
Description: as §1

SMILES	pIC50 [1]	pIC50 [2]	pEC50 [2]
COc1ccc2c(c1)[nH]c1c3[nH]c4ccccc4c3c3c(c21)C(=O)NC3=O [6-methoxy-3,13,23-triazahexacyclo[14.7.0.0^{2,10}.0^{4,9}.0^{11,15}.0^{17,22}]tricosa-1(16),2(10),4(9),5,7,11(15),17(22),18,20-nonaene-12,14-dione]	< 5.70		
O=C1NC(=O)c2c1c1c3ccccc3[nH]c1c1[nH]c3cc(C(F)(F)F)ccc3c21 [6-(trifluoromethyl)-3,13,23-triazahexacyclo[14.7.0.0^{2,10}.0^{4,9}.0^{11,15}.0^{17,22}]tricosa-1(16),2(10),4(9),5,7,11(15),17(22),18,20-nonaene-12,14-dione]	< 5.70	< 5.70	
O=C1NC(=O)c2c1c1c3ccccc3[nH]c1c1[nH]c3cc(F)ccc3c21 [6-fluoro-3,13,23-triazahexacyclo[14.7.0.0^{2,10}.0^{4,9}.0^{11,15}.0^{17,22}]tricosa-1(16),2(10),4(9),5,7,11(15),17(22),18,20-nonaene-12,14-dione]	< 5.70		7.40
Cc1ccc2c(c1)[nH]c1c3[nH]c4ccccc4c3c3c(c21)C(=O)NC3=O [6-methyl-3,13,23-triazahexacyclo[14.7.0.0^{2,10}.0^{4,9}.0^{11,15}.0^{17,22}]tricosa-1(16),2(10),4(9),5,7,11(15),17(22),18,20-nonaene-12,14-dione]	< 5.70		
O=C1NC(=O)c2c1c1c3ccccc3[nH]c1c1[nH]c3cc(Br)ccc3c21 [6-bromo-3,13,23-triazahexacyclo[14.7.0.0^{2,10}.0^{4,9}.0^{11,15}.0^{17,22}]tricosa-1(16),2(10),4(9),5,7,11(15),17(22),18,20-nonaene-12,14-dione]	< 4.70		7.15
Cn1c2ccccc2c2c3c(c4c5ccc(Br)cc5[nH]c4c21)C(=O)NC3=O [indolocarbazole deriv. 4(f)]	< 5.70		7.10
Cn1c2ccccc2c2c3c(c4c5ccc(F)cc5[nH]c4c21)C(=O)NC3=O [indolocarbazole deriv. 4(h)]	< 5.70	< 5.70	
O=C1NC(=O)c2c1c1c3ccccc3[nH]c1c1[nH]c3ccccc3c21 [6,7,12,13-Tetrahydro-5,7-dioxo-5H-indolo[2,3-a]pyrrolo[3,4-c]carbazole]	< 5.70		
O=C1NC(=O)c2c1c1c3ccccc3[nH]c1c1[nH]c3ccc(Br)cc3c21 [7-bromo-3,13,23-triazahexacyclo[14.7.0.0^{2,10}.0^{4,9}.0^{11,15}.0^{17,22}]tricosa-1(16),2(10),4(9),5,7,11(15),17(22),18,20-nonaene-12,14-dione]	< 4.70	> 5.90	7.15
O=C1NC(=O)c2c1c1c3ccccc3[nH]c1c1[nH]c3cc(Cl)ccc3c21 [6-chloro-3,13,23-triazahexacyclo[14.7.0.0^{2,10}.0^{4,9}.0^{11,15}.0^{17,22}]tricosa-1(16),2(10),4(9),5,7,11(15),17(22),18,20-nonaene-12,14-dione]	< 5.70		
O=C1NC(=O)c2c1c1c3ccccc3[nH]c1c1[nH]c3c(Br)cccc3c21 [5-bromo-3,13,23-triazahexacyclo[14.7.0.0^{2,10}.0^{4,9}.0^{11,15}.0^{17,22}]tricosa-1(16),2(10),4(9),5,7,11(15),17(22),18,20-nonaene-12,14-dione]	< 4.70		
COc1ccc2c(c1)[nH]c1c3[nH]c4cc(Br)ccc4c3c3c(c21)C(=O)NC3=O [6-bromo-20-methoxy-3,13,23-triazahexacyclo[14.7.0.0^{2,10}.0^{4,9}.0^{11,15}.0^{17,22}]tricosa-1(16),2(10),4(9),5,7,11(15),17(22),18,20-nonaene-12,14-dione]	< 5.70	< 5.70	
